ChEMBL document CHEMBL1201862, “PubChem BioAssay data set” (2004)
Calls of active or inactive are those of the source. Rule as the data show it, for most assays here: actives have a measured IC50 and inactives only a lower limit.

How the values were obtained:
Hexokinase = target: T1, Hexokinase (Trypanosoma brucei, UniProt Q38C41); assay: Confirmation assay for inhibitors of Trypanosoma brucei hexokinase 1-Analogue-first series. [Related pubchem assays (depositor defined):AID1430, AID1632, AID2516, AID2560, AID2579, AID2600, AID449725, AID492951]; format: functional
T1 sequence (Q38C41 whole entry): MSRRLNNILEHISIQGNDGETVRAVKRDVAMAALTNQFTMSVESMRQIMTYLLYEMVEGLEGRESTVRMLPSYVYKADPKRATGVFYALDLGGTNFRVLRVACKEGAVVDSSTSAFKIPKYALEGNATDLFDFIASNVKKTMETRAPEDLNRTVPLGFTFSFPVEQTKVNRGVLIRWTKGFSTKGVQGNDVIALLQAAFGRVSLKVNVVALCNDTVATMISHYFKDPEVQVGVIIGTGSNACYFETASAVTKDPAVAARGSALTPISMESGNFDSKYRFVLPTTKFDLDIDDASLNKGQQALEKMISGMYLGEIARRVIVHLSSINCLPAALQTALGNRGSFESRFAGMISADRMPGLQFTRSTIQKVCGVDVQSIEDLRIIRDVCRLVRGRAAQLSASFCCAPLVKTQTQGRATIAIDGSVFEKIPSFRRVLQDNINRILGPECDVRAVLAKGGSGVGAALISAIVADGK

[1] = target: T2, Ubiquitin-conjugating enzyme E2 N (Homo sapiens, UniProt P61088); format: functional
T2 sequence (P61088 whole entry): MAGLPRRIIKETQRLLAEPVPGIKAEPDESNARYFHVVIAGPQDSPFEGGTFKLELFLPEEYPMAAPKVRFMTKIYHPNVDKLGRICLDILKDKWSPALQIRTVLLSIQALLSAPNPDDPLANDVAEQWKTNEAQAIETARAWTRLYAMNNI

Bcl-2-related protein A1 = target: T3, Bcl-2-related protein A1 (Mus musculus, UniProt Q07440); format: functional;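 also: confirmatory dose–response counterscreen on Bfl-1, used to check hits from a UBC13 polyubiquitin inhibitor campaign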
T3 sequence (Q07440 whole entry): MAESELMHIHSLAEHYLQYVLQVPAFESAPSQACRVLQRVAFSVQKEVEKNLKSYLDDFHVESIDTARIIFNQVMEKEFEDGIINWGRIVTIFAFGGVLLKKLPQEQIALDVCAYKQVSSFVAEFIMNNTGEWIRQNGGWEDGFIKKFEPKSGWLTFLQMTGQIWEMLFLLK

[2] = target: T2, Ubiquitin-conjugating enzyme E2 N; format: functional; remark: listed apart in the source
[3] = target: DNA dC->dU-editing enzyme APOBEC-3A (Homo sapiens, UniProt P31941); assay: A3A deaminase inhibition for selectivity – biochemical, dose response (AID 504722); format: functional
DNA dC->dU-editing enzyme APOBEC-3A, sequence (P31941 whole entry): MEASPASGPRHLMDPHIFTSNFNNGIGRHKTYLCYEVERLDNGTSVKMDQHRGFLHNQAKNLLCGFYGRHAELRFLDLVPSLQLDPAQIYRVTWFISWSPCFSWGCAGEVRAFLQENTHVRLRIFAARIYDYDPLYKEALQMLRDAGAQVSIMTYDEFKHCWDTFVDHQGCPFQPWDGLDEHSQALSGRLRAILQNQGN

[4] = target: DNA dC->dU-editing enzyme APOBEC-3G (Homo sapiens, UniProt Q9HC16); assay: Dose Response confirmation of small molecule APOBEC3G DNA Deaminase Inhibitors via a fluorescence-based single-stranded DNA deaminase assay. [Related pubchem assays (depositor defined):AID493012, AID493028]; format: functional
DNA dC->dU-editing enzyme APOBEC-3G, sequence (Q9HC16 whole entry): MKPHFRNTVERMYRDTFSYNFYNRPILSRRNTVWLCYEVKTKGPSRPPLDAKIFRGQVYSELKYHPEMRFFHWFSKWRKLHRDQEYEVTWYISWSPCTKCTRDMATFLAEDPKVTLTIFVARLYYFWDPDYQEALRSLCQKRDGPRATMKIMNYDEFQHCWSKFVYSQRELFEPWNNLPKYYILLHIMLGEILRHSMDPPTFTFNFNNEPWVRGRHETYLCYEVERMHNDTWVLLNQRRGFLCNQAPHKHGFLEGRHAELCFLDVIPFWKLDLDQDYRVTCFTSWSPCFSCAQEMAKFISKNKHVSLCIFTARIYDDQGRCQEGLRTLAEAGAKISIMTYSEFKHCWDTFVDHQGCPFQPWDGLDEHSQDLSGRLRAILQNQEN

[5] = target: Glucose-6-phosphate 1-dehydrogenase (Homo sapiens, UniProt P11413); assay: inhibition of Homo sapiens G6PD, dose series – biochemical, fluorescence, selectivity assay for P. falciparum G6PD inhibitor project, dose response (AID 504792); format: functional
Glucose-6-phosphate 1-dehydrogenase, sequence (P11413 whole entry): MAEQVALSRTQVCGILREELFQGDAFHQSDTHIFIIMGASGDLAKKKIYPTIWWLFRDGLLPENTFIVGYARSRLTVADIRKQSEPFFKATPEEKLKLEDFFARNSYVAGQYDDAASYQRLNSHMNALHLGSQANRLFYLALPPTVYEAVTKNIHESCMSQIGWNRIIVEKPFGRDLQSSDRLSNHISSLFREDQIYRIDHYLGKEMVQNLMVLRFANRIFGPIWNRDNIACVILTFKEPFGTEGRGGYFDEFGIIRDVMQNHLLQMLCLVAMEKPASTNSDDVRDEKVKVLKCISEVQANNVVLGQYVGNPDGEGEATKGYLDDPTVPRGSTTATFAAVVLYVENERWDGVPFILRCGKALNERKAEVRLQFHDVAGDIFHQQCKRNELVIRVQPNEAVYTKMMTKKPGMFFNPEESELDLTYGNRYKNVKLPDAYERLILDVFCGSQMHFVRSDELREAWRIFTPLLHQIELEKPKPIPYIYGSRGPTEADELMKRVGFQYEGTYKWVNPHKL

Large T antigen = Large T antigen (Simian virus 40, UniProt P03070); format: functional, Betapolyomavirus macacae;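 also: Confirmatory-stage PubChem screen for compounds that inhibit SV40 T antigen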
Large T antigen, sequence (P03070 whole entry): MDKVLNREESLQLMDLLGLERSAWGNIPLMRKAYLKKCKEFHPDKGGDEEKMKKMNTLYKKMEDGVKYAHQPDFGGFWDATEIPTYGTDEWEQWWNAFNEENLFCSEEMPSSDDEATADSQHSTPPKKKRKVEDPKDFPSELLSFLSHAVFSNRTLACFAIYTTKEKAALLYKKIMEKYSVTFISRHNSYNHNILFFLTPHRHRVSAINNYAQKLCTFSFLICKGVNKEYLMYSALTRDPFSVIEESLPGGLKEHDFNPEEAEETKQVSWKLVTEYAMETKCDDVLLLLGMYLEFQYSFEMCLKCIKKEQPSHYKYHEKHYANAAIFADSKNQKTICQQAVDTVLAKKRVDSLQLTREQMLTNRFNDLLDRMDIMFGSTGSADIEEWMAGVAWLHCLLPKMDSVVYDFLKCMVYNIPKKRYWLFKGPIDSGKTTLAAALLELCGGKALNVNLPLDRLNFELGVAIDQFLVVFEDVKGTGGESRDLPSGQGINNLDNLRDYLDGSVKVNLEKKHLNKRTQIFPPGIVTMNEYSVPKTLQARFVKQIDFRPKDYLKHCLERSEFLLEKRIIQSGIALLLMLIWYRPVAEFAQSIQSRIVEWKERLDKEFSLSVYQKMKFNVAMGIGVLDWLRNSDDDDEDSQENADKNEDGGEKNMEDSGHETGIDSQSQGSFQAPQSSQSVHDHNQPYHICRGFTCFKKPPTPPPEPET

HEK293 [6] = assay: NOD2 signaling inhibitors in MDP-stimulated cells, cell-based, uHTS, luminescence (AID 2001); format: functional; conditions: Homo sapiens
HEK293 [7] = assay: cells; format: functional, cell-based; conditions: Homo sapiens
HEK293 [8] = assay: inhibition of NOD1-driven NF-kB reporter – cell-based, luminescence, uHTS, primary screen (AID 1578); format: functional; conditions: Homo sapiens
[9] = target: T4, Nucleotide-binding oligomerization domain-containing protein 1 (Homo sapiens, UniProt Q9Y239); assay: blockers of NOD1 pathway activity – revised, SAR follow-up (AID 2333); format: functional
T4 sequence (Q9Y239 whole entry): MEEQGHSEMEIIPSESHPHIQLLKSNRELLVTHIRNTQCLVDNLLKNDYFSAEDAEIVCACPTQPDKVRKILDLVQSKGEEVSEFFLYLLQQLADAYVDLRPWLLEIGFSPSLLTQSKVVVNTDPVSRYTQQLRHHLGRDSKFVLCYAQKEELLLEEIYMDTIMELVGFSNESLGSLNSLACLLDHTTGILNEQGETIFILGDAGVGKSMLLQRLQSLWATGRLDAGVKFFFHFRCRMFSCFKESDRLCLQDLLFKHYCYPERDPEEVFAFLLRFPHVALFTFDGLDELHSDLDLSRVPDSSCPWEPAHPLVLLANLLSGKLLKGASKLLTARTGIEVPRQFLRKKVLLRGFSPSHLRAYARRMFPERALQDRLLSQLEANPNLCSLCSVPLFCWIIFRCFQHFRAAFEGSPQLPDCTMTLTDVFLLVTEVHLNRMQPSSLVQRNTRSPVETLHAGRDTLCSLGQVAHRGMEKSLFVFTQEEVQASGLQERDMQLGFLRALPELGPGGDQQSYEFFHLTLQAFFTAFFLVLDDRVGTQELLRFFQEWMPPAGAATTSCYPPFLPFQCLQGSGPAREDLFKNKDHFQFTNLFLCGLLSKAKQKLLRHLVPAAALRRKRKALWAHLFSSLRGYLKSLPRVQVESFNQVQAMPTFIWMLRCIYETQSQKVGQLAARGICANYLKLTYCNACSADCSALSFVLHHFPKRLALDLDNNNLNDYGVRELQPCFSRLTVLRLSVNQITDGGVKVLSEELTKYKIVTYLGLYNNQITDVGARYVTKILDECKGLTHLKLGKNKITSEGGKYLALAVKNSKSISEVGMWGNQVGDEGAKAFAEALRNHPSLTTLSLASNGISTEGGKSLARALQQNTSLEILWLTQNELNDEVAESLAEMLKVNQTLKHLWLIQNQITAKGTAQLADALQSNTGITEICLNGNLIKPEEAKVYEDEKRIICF

HEK293 [10] = assay: cells; conditions: Homo sapiens
Tumor necrosis factor = Tumor necrosis factor (Homo sapiens, UniProt P01375); assay: analog potency on TNFa NF-kB signaling – cell-based, revised, SAR follow-up (AID 2337); format: functional
Tumor necrosis factor, sequence (P01375 whole entry): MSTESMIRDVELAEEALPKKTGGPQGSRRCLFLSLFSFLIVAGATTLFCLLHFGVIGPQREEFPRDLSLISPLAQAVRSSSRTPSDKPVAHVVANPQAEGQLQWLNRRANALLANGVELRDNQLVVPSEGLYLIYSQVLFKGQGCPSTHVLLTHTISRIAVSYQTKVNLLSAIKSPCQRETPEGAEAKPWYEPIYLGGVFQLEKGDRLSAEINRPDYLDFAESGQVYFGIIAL

HEK293 [11] = assay: cells; format: functional, cell-based; conditions: Homo sapiens; remark: listed apart in the source
INS1 = assay: INS-1E survival protection against cytokine death – cell-based, luminescence, retest, dose response (AID 449756); format: functional; conditions: Rattus norvegicus;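 also: cell death triggered by IL-1 beta plus TNF-alpha plus IFN-gamma mixture; protective hits raise ATP signal compared with cytokine alone wells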
[12] = Luminescence Cell-Based Dose Retest to Confirm Inhibitors of Cancer Stem Cells. [Related pubchem assays (depositor defined):AID2717, AID2721]; format: functional; conditions: Homo sapiens
Genome polyprotein = Genome polyprotein (dengue virus type 2, UniProt P29990); assay: flavivirus cap methylation enzyme inhibition – biochemical, confirmation dose response, primary screen (AID 588689); format: functional
Genome polyprotein, sequence (P29990 2492-3391 limits assumed): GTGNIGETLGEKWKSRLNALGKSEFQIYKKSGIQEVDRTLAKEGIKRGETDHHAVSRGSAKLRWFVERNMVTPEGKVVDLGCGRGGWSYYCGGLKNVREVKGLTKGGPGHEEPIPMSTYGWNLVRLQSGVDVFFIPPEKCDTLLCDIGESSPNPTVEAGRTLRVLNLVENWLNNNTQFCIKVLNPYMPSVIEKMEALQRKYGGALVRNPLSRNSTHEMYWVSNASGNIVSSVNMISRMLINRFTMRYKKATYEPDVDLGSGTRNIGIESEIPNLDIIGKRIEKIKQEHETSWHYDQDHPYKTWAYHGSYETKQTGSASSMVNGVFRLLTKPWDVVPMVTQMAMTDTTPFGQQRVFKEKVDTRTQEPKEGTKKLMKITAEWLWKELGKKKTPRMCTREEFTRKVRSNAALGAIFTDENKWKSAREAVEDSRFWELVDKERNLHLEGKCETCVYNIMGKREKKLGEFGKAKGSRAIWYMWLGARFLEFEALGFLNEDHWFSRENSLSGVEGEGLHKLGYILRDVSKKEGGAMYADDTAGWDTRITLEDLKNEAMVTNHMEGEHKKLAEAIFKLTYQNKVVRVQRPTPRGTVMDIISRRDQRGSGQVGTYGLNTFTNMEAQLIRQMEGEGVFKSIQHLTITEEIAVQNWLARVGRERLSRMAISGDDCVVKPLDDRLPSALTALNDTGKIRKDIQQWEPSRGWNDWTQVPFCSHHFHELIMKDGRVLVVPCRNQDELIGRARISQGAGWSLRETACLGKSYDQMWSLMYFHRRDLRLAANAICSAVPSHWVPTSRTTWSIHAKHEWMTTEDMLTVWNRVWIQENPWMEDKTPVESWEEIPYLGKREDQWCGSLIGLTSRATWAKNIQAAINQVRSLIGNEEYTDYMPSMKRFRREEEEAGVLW

[13] = target: T5, Hepatocyte nuclear factor 4-alpha (Homo sapiens, UniProt P41235); format: functional, cell-based;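 also: biochemical luminescence-based dose-response counterscreen measuring inhibition of HNF4 dimerization, run alongside a screen for blockers of ABHD5–perilipin-5 interaction; split luciferase complementation of HNF4 fusion proteins in cell lysate measuring dimerization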
T5 sequence (P41235 whole entry): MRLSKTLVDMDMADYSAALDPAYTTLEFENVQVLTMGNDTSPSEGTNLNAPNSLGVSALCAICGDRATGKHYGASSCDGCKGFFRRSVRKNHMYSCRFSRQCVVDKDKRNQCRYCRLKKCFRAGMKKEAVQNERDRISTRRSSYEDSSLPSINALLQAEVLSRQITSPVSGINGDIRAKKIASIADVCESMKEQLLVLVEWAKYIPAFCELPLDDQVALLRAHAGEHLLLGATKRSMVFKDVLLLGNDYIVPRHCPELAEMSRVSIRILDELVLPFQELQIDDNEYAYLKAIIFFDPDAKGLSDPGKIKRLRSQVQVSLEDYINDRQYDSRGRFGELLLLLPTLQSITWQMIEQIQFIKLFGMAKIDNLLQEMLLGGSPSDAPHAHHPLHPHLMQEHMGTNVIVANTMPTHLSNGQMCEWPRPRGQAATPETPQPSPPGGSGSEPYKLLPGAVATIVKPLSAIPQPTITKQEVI

Question: With `O=c1c2ccccc2sn1-c1cccc(F)c1` as the molecule, how does the IC50 (Hexokinase) read?
Answer: The IC50 was 1.82 µM (active).

Question: With `CN(C)CCCN(C(=O)c1ccc(S(=O)(=O)N2CCCCC2)cc1)c1nc2cc3c(cc2s1)OCO3` as the molecule, how does the IC50 [1] read?
Answer: The IC50 was 12.7 µM (active).

Question: What about the IC50 (Bcl-2-related protein A1) of the same molecule?
Answer: The IC50 was > 20 µM (inactive).

Question: What about the IC50 [2] of the same molecule?
Answer: Its IC50 is > 20 µM (inactive).

Question: What does the source list for `C/N=c1/nc(-c2ccccc2)n(-c2ccccc2)s1`?
Answer: IC50 [3]: > 100 µM (inactive); IC50 [4]: 15.9 µM (active); IC50 [5]: 10.1 µM (active); IC50 (Large T antigen): 29.4 µM (active)

Question: What does the source list for `COc1ccccc1CNc1ncnc2sccc12`?
Answer: IC50 (HEK293 [6]): 8.12 µM (active); IC50 (HEK293 [7]): 4.4 µM (active); EC50 (HEK293 [8]): 1.69 µM (active); IC50 [9]: 3.08 µM (active); IC50 (HEK293 [10]): > 20 µM (inactive); IC50 (Tumor necrosis factor): 4.19 µM (active); IC50 (HEK293 [11]): 14.8 µM (active); AC50 (INS1): 4.26 µM (active)

Question: For `Sc1nnc(-c2ccccn2)n1/N=C/c1cccc(Cl)c1`, which IC50 [3] is on record?
Answer: Its IC50 is > 100 µM (inactive).

Question: What about the IC50 [4] of the same molecule?
Answer: The IC50 was 2.81 µM (active).

Question: Which AC50 [12] does the source give for `Oc1nc(/C=C/c2ccc(Cl)cc2Cl)cc(C(F)(F)F)n1` here?
Answer: The AC50 was 1.49 µM (active).

Question: What about the IC50 (HEK293 [6]) of the same molecule?
Answer: Its IC50 is 5.9 µM (active).

Question: And the IC50 (HEK293 [7])?
Answer: Its IC50 is 7.72 µM (active).

Question: And the EC50 (HEK293 [8])?
Answer: The EC50 was 3.83 µM (active).

Question: What about the IC50 [9] of the same molecule?
Answer: The IC50 was 1.74 µM (active).

Question: And the IC50 (HEK293 [10])?
Answer: Its IC50 is 11.9 µM (active).

Question: What about the IC50 (Tumor necrosis factor) of the same molecule?
Answer: Its IC50 is 3.75 µM (active).

Question: What about the IC50 (HEK293 [11]) of the same molecule?
Answer: Its IC50 is > 20 µM (inactive).

Question: What about the IC50 (Genome polyprotein) of the same molecule?
Answer: The IC50 was 68.2 µM (active).

Question: What about the IC50 [13] of the same molecule?
Answer: The IC50 was 4.57 µM (active).
